Each block holds one compound with its values, some of them ahead of it.
Assays:
[1] = molecular target: T1, Peroxisome proliferator-activated receptor alpha (Homo sapiens, UniProt Q07869); format: functional
T1 sequence (Q07869 whole entry): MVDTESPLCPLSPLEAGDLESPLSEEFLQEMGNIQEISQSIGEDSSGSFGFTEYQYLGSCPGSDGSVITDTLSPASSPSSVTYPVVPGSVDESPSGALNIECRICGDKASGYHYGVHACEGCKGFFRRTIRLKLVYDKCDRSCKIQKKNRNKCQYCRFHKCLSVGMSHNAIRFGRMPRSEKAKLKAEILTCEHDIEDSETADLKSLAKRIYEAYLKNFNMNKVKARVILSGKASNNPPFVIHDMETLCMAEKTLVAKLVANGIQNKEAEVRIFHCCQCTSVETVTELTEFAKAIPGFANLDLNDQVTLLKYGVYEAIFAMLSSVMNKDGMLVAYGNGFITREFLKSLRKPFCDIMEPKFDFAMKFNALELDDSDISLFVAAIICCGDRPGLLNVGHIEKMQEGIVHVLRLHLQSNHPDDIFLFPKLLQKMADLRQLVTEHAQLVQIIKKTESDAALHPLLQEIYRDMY

[2] = molecular target: T2, Progesterone receptor (Homo sapiens, UniProt P06401)
T2 sequence (P06401 whole entry): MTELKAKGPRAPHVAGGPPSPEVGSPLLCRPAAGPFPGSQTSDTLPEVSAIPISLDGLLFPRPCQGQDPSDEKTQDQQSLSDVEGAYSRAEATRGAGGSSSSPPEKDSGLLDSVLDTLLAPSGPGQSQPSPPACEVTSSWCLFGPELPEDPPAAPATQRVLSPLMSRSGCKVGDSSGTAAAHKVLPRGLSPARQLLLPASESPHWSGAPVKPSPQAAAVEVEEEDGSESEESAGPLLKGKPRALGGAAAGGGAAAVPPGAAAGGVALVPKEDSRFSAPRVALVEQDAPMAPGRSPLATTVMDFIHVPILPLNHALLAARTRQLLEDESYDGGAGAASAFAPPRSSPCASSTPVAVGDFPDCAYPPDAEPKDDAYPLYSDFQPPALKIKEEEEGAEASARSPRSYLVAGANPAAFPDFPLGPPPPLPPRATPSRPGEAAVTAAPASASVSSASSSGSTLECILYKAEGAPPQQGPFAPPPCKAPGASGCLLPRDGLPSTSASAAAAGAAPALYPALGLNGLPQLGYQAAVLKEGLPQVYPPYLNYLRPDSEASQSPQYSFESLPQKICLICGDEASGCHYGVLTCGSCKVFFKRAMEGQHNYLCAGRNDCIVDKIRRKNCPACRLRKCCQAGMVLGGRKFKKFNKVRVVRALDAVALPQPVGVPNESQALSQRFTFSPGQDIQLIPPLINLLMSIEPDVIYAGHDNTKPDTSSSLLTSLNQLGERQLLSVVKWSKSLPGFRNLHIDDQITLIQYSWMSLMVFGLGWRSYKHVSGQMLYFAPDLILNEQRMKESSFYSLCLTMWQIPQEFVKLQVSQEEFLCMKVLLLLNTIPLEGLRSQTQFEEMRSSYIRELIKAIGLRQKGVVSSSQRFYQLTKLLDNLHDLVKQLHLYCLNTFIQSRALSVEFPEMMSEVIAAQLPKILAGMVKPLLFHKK

[3] = molecular target: T3, Alpha-1A adrenergic receptor (Homo sapiens, UniProt P35348); format: functional, cell-based
T3 sequence (P35348 whole entry): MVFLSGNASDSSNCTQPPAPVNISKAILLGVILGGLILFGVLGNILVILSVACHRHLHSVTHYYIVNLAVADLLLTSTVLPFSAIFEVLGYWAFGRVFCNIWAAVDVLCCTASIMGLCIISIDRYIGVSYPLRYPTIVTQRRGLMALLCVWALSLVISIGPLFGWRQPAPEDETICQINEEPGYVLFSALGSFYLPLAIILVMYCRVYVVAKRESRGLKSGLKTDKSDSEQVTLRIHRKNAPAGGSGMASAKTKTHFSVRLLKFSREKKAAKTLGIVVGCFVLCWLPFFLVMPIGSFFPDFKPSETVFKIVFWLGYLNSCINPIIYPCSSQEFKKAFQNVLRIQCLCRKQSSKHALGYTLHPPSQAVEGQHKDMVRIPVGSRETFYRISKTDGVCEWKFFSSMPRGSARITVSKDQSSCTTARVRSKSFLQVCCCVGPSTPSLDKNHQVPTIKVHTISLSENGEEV

[4] = molecular target: Sodium-dependent noradrenaline transporter (Homo sapiens, UniProt P23975)
Sequence of Sodium-dependent noradrenaline transporter (P23975 whole entry): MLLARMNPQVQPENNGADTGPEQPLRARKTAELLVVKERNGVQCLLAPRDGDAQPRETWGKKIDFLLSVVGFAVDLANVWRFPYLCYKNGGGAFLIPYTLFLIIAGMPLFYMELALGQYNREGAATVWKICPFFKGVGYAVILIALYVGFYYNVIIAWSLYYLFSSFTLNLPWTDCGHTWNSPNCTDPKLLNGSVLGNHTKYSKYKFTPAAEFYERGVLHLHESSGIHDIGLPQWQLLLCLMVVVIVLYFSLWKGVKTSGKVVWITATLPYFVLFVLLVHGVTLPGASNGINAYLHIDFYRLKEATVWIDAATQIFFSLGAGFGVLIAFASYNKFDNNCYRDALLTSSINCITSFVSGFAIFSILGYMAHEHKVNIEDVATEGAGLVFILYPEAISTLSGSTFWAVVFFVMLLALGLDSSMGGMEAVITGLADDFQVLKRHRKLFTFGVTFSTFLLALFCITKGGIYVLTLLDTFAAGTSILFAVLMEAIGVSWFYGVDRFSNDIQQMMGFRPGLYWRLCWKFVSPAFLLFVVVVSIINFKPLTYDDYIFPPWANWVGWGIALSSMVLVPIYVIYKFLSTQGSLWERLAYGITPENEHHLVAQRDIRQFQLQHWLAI

[5] = molecular target: T4, Thromboxane A2 receptor (Homo sapiens, UniProt P21731); format: functional, cell-based
T4 sequence (P21731 whole entry): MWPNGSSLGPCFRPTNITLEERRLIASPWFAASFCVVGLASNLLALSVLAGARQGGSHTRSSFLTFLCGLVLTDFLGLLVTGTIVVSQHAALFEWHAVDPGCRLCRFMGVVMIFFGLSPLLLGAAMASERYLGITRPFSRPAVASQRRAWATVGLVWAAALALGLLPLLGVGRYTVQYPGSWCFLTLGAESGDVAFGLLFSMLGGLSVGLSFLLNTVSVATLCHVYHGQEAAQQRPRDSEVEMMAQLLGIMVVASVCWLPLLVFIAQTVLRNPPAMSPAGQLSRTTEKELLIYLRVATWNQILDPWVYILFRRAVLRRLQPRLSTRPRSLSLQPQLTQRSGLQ

[6] = molecular target: T5, Estrogen receptor (Homo sapiens, UniProt P03372)
T5 sequence (P03372 whole entry): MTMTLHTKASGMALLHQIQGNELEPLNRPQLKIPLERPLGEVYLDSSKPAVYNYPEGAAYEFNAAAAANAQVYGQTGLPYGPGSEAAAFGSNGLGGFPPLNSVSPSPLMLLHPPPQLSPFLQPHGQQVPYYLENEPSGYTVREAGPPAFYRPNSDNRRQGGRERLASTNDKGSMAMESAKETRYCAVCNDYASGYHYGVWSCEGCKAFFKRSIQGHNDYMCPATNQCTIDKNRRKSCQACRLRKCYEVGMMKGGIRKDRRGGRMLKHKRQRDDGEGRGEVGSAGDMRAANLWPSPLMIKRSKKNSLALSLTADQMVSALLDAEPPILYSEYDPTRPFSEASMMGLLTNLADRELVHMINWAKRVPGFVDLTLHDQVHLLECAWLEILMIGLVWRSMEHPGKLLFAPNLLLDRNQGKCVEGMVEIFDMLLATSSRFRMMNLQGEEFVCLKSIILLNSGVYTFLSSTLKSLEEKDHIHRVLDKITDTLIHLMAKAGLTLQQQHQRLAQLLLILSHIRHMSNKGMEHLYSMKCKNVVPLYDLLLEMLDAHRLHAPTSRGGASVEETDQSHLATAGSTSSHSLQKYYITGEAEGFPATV

[7] = molecular target: Prothrombin (Homo sapiens, UniProt P00734); format: functional
[8] = molecular target: T5, Estrogen receptor; format: functional
Further: assay procedure not described here.

AC50 [1]: > 30 µM
Structure (SMILES): CCOC(=O)C(C)(C)Oc1ccc(Cl)cc1 [CLOFIBRATE]

AC50 [2]: > 10 µM | AC50 [3]: > 1 µM | AC50 [4]: 6.92 µM | AC50 [5]: > 1 µM | AC50 [6]: > 30 µM | AC50 [7]: > 30 µM
Structure (SMILES): CCN(CC)CCCC(C)Nc1c2ccc(Cl)cc2nc2ccc(OC)cc12 (stereo not drawn) [QUINACRINE]

AC50 [8]: > 30 µM
Structure (SMILES): CCOC(=O)[C@@H](N)Cc1ccc(-c2cc(O[C@H](c3ccc(Cl)cc3-n3ccc(C)n3)C(F)(F)F)nc(N)n2)cc1 [TELOTRISTAT ETHYL]

Source: ChEMBL document CHEMBL5291721, “A preclinical secondary pharmacology resource illuminates target-adverse drug reaction associations of marketed drugs” (Nat Commun, 2023)
